Legend:
[1] = system: thymus and spleen of H22 liver cancer tumor-bearing mice; type: in vivo
Procedure: (§1) After the tumor-bearing mice are sacrificed, the spleen and thymus are weighed, and the spleen index and thymus index are calculated.

[2] = system: spleen of A549 lung cancer tumor-bearing mice; type: in vivo
Procedure: as §1

[3] = system: transplanted tumor of human colon cancer HT-29 cells; assay: Human colon cancer in nude mice model; conditions: HT-29 nude mice; 30 mg/kg i.g. 30 d
Procedure: (§2) Then cell concentration was adjusted to 1×10^7/ml with matrigel, then each nude mouse was inoculated subcutaneously with 0.2 ml of cells at its right armpit and recorded as the first day of inoculation. […] Each group was continuously administered intragastrically for 30 days with a dose of 20 ml/kg. The mice were sacrificed the next day after drug withdrawal and the indicators were tested. The long diameter and short diameter of the tumor, and the body weight of each mouse were recorded every 3 days from drug administration to nude mouse sacrifice.
(§3) The body weight of the nude mice and the long diameter (a) and short diameter (b) of the transplanted tumor were measured every 3 days, and the tumor volume (v), relative tumor volume (RTV) and relative tumor proliferation rate (T/C) are calculated respectively according to the following formulas, wherein V=a×b^2/2; RTV=V/V0 (V0 is the tumor volume before administration, V is the tumor volume before sacrifice), and T/C (%)=treatment group RTV/model control group RTV×100%.
(§4) Each mouse was weighed and sacrificed. After the tumor was completely stripped off from the body of the mouse, the non-tumor tissues such as blood stains and fat were removed to weigh the tumor and calculate the tumor growth inhibition rate. The average tumor weight of each group of mice is used as an indicator of efficacy. Tumor growth inhibition rate (%)=(1−the average tumor weight of the treatment group/the average tumor weight of the model group)×100%.

[4] = system: transplanted tumor of human cervical cancer HeLa cells; assay: Human cervical cancer in nude mice model; conditions: 30 mg/kg i.g. 30 d
Procedure: as §2, with “Then the cells were subjected to trypsinization, centrifugation, and supernatant removal. Then” for “Then”
as §3
as §4, with “Calculation of Tumor Growth Inhibition Rate Each” for “Each”

[5] = system: transplanted tumor of human leukemia HL-60 cells; assay: Human leukemia in nude mice model; conditions: HL-60 nude mice; 30 mg/kg i.g. 30 d
Procedure: as §2, with “HL-60 cells in a logarithmic growth phase were taken and subjected to a trypan blue exclusion experiment showing that the cell viability was more than 95%, then the cells were subjected to trypsinization, centrifugation, and supernatant removal. Then” for “Then”, “matrigel, and” for “matrigel,”
as §3, §4

[6] = system: transplanted tumor of human hepatocarcinoma HepG-2 cells; assay: Human hepatocarcinoma in nude mice model; conditions: HepG-2 nude mice; 30 mg/kg i.g. 30 d
Procedure: as §2, with “matrigel, and” for “matrigel,”
as §3, §4

[7] = system: transplanted tumor of human prostate cancer PC3 cells; assay: Human prostate cancer in nude mice model; conditions: 30 mg/kg i.g. 30 d
Procedure: as §2, with “matrigel, and” for “matrigel,”
as §3, §4

[8] = system: transplanted tumor of human large cell lung cancer H1299 cells; assay: Human large cell lung cancer (H1299) in nude mice model; conditions: 30 mg/kg i.g. 30 d
Procedure: as §2, §3, §4

[9] = system: transplanted tumor of human breast cancer MCF-7 cells; assay: Human breast cancer (MCF-7) in nude mice model; conditions: MCF-7 nude mice; 30 mg/kg i.g. 30 d
Procedure: as §2, with “matrigel, and” for “matrigel,”
as §3, §4

[10] = H22 tumor-bearing mice, cyclophosphamide, P<0.01

O=P1(N(CCCl)CCCl)NCCCO1 (stereo not shown) [Cyclophosphamide]
Spleen Index (%) ([1]; 26 mg/kg, positive drug group): 0.38 ± 0.09 %
Thymus Index (%) ([1]; 26 mg/kg, positive drug group): 0.04 ± 0.02 %
spleen index compared with the control group [1, 10]: significantly lower
thymus index compared with the control group [1, 10]: significantly lower
Spleen Index (%) ([2]; 26 mg/kg, positive drug group, n = 6): 0.20 ± 0.03 %
spleen index compared with the control group ([2]; A549 lung cancer tumor-bearing mice, cyclophosphamide, P<0.01): significantly lower
Body Weight (g)(d1) [3]: 23.76 ± 01.11 g
Body Weight (g)(d30) [3]: 21.52 ± 01.32 g
Inhibition Rate (%) [3]: 67.38%
Relative Tumor Proliferation Rate(T/C) [3]: 25.71%
Relative Tumor Volume (RTV) [3]: 5.21 ± 0.70
Tumor Volume (mm3) (d1) [3]: 156.61 ± 5.92 mm3
Tumor Volume (mm3) (d30) [3]: 816.17 ± 21.03 mm3
Tumor Weight [3]: 0.40 ± 0.03 g
Body Weight (g)(d1) [4]: 20.04 ± 0.68 g
Body Weight (g)(d30) [4]: 19.20 ± 0.18 g
Inhibition Rate (%) [4]: 72.48%
Relative Tumor Proliferation Rate(T/C) [4]: 24.35%
Relative Tumor Volume (RTV) [4]: 3.44 ± 0.93
Tumor Volume (mm3) (d30) [4]: 397.88 ± 103.60 mm3
Tumor Weight [4]: 0.49 ± 0.39 g
Body Weight (g)(d1) [5]: 22.66 ± 1.11 g
Body Weight (g)(d30) [5]: 20.52 ± 1.73 g
Inhibition Rate (%) [5]: 81.37%
Relative Tumor Proliferation Rate(T/C) [5]: 58.63%
Relative Tumor Volume (RTV) [5]: 6.76 ± 2.53
Tumor Volume (mm3) (d1) [5]: 209.22 ± 50.12 mm3
Tumor Volume (mm3) (d30) [5]: 1415.16 ± 320.21 mm3
Tumor Weight [5]: 1.46 ± 0.24 g
Body Weight (g)(d1) [6]: 22.67 ± 1.54 g
Body Weight (g)(d30) [6]: 21.52 ± 1.99 g
Inhibition Rate (%) [6]: 63.48%
Relative Tumor Proliferation Rate(T/C) [6]: 32.55%
Relative Tumor Volume (RTV) [6]: 4.27 ± 0.26
Tumor Volume (mm3) (d1) [6]: 146.12 ± 2.30 mm3
Tumor Volume (mm3) (d30) [6]: 623.67 ± 28.44 mm3
Tumor Weight [6]: 0.46 ± 0.07 g
Body Weight (g)(d1) [7]: 19.32 ± 0.25 g
Body Weight (g)(d30) [7]: 18.68 ± 1.21 g
Inhibition Rate (%) [7]: 70.06%
Relative Tumor Proliferation Rate(T/C) [7]: 23.29%
Relative Tumor Volume (RTV) [7]: 4.67 ± 0.82
Tumor Volume (mm3) (d1) [7]: 108.68 ± 13.62 mm3
Tumor Volume (mm3) (d30) [7]: 507.88 ± 87.93 mm3
Tumor Weight [7]: 0.56 ± 0.4 g
Body Weight (g)(d1) [8]: 20.92 ± 0.59 g
Body Weight (g)(d30) [8]: 18.82 ± 0.52 g
Inhibition Rate (%) [8]: 68.59%
Relative Tumor Proliferation Rate(T/C) [8]: 31.47%
Relative Tumor Volume (RTV) [8]: 6.13 ± 0.82
Tumor Volume (mm3) (d1) [8]: 115.38 ± 13.82 mm3
Tumor Volume (mm3) (d30) [8]: 707.28 ± 26.96 mm3
Tumor Weight [8]: 0.56 ± 0.11 g
Body Weight (g)(d1) [9]: 21.93 ± 0.89 g
Body Weight (g)(d30) [9]: 19.79 ± 1.47 g
Inhibition Rate (%) [9]: 62.3%
Relative Tumor Proliferation Rate(T/C) [9]: 30.58%
Relative Tumor Volume (RTV) [9]: 5.00 ± 1.27
Tumor Volume (mm3) (d1) [9]: 127.68 ± 14.89 mm3
Tumor Volume (mm3) (d30) [9]: 638.62 ± 123.11 mm3
Tumor Weight [9]: 0.72 ± 0.21 g
